Measured values from patent US8097624B2, “Cycloalkyl derivatives of 3-hydroxy-4-pyridinones” (Apotex Inc., priority 2006, dated 2012).
Where “and” joins values, the source holds several entries; their conditions need not be identical. Identical values can stand only once.

Legend:
[1] = pKa determination by potentiometric or spectrophotometric titration; assay type: physicochemical; settings: titration in 0.1 M NaCl at 22° C.
Description: The pKa values of ligands were determined by potentiometric titration when a ligand concentration greater than 1×10^−2 M in water could be prepared. In a typical experiment, the sample solution (2.67×10^−2 M) was prepared by the following method: Apo6619 (92.6 mg) was weighed into a 25-ml beaker, followed by the addition of 0.1 M NaCl (15 ml). The mixture was sonicated for 10 minutes to give a clear colorless solution. Nitrogen gas was then allowed to bubble through the solution. 1.000 N Hydrochloric acid (624 μl, 1.5 equivalent) was added to the solution to give pH 1.88. The solution was allowed to equilibrate at 22° C. for 60 minutes.
The solution was then titrated against 1.000 N NaOH at 22° C. to reach pH 11.8. For each addition of base, the solution was allowed to equilibrate until a constant pH reading was reached. The volume of the base added and the pH reading were recorded for each measurement. 137 measurements were taken to finish the experiment.
The data set of pH vs. base volume was analyzed using Hyperquad 2000 (Version 2.1, Peter Gans, University of Leeds).
The pKa values of ligands can be determined by spectrophotometric titration when both the conjugated acid and base absorb in the UV-Visible region. In a typical experiment, the sample solution was prepared by the following method: Apo6617 (0.792 mg) was weighed into an 80-ml beaker, followed by the addition of 0.1 M NaCl (50 ml). The mixture was sonicated for 5 minutes to give a clear colorless solution. Nitrogen gas was allowed to bubble through the solution. 1.000 N NaOH (50 μl) was added to give pH 10.9. The solution was allowed to equilibrate at 22° C. for 1 hour. A sipper system was used for the circulation of the sample solution between the beaker and the flow cell.
The sample solution was titrated against standard hydrochloric acid solutions at 22° C. to reach pH 1.40. After each addition of acid the solution was allowed to equilibrate until a constant pH reading was reached. The pH and the UV-Vis spectrum were recorded for each measurement. The peak wavelengths of the deprotonated species (L^−), the neutral species (LH), and the protonated species (LH2^+) were 314 nm, 281 nm, and 249 nm, respectively. In the region of pH>6, after each addition of acid there was a slight decrease in the absorbance at 314 nm and a slight increase at 281 nm in each spectrum, whereas in the region of pH<5, after each addition of acid there was a slight decrease in the absorbance at 281 nm and a slight increase at 249 nm in each spectrum. The solution was titrated until there was no obvious change in the spectra after several subsequent additions of acid. 116 measurements were taken to finish the experiment.
The resulting data set was then analyzed using pHAB (Peter Gans, University of Leeds).

Iron Overloaded Rats = assay: Second rat study: urinary and fecal iron excretion at 28, 113 and 450 μmoles/kg; assay type: in vivo; settings: n=6/group, mean ± 1SD
Description: A second study was conducted to confirm the efficacy results of Apo6619 and Apo6617 observed in the above study and to further characterize the efficacy of these compounds at doses lower than 450 μmol/kg. The study was conducted in two separate groups of iron overloaded rats. The method of iron overloading, preparation of dosing solutions and assessment of efficacy in these rats was similar to that described in the above study.
The first group of rats (n=6) were treated with Apo6619 consecutively at doses of 28, 113 and 450 μmoles/kg. Similarly, the second group of rats (also n=6) was treated with Apo6617 at these same three doses. Similar to the previous study, both Apo6619 and Apo6617 produced an increase in urinary iron excretion at the 450 μmoles/kg dose (Apo6619: 11±3 at baseline to 335±76 1-day post-Apo6619, p=0.0001; Apo6617: 14±4 at baseline to 183±20 1-day post-Apo6617, p=0.0003). […] At 28 μmoles/kg, only Apo6617 produced an increase in iron excretion (p=0.01) above baseline. However, the magnitude of the increased excretion was small for both Apo6619 and Apo6617.

[2] = Distribution coefficient determination (D7.4), 1-octanol / MOPS buffer; assay type: physicochemical; settings: 1-octanol / MOPS buffer pH 7.4
Description: MOPS buffer (50 mM, pH=7.4) and 1-octanol were used as the aqueous phase and the organic phase, respectively, for distribution coefficient determinations. The MOPS buffer and 1-octanol were pre-saturated with each other before use.
In a typical experiment, an organic stock solution of Apo6618 (1-cyclopropyl-3-hydroxy-6-methyl-4-oxo-1,4-dihydro-pyridine-2-carboxylic acid cyclopropylamide) was prepared by weighing out 0.50 mg of the compound into a 10-mL volumetric flask and bringing to volume with 1-octanol. The solution was then sonicated for 60 minutes so that the sample could dissolve completely. The concentration of the stock solution was calculated as C^0org=2.0×10^−4 M. The organic standard solution of Apo6618 with 2.0×10^−5 M was prepared in a 10-mL volumetric flask by 10 times dilution of the stock solution with 1-octanol. The sample solution was prepared in a 10-mL volumetric flask. The stock sample solution (3 ml) was pipetted into the flask followed by the addition of MOPS buffer (3 ml). The standard and sample solutions were then vortexed for 2 hours. After vortexing, the solutions were transferred to test tubes and centrifuged at 4000 rpm for 15 minutes. UV-Vis spectra were recorded for the standard solution and the organic (top) phase of the sample solution at 22° C. The distribution coefficient, D7.4, was calculated using the following equation: D7.4=[Aorg/(C^0orgεorg−Aorg)]×(Vaqu/Vorg)
Where εorg=the molar extinction coefficient of the peak wavelength (λmax) obtained from the UV-Vis spectrum of the organic standard solution; Aorg=absorbance of the organic phase in the sample solution at the same λmax; C^0org=the concentration of the stock solution; Vaqu=the volume of MOPS buffer in the sample solution; Vorg=the volume of the stock solution in the sample solution.

[3] = Drug Metab. Dispo. 1992; cited from earlier work

Cc1cc(=O)c(O)c(C(=O)NC2CC2)n1C [Apo6617, 3-Hydroxy-1,6-dimethyl-4-oxo-1,4-dihydro-pyridine-2-carboxylic Acid Cyclopropylamide]
melting point: 260 to 262 °C | pKas (higher value, phenolic C3 OH) [1]: 8.6 and 8.5 | pKas (lower value, LH2+) [1]: 2.5 and 2.4 | Iron excretion, Urine (1 day post-chelator) (Iron Overloaded Rats; 28 μmol/kg): 24 ± 6 µg/day/kg | Iron excretion, Feces (3 days) (Iron Overloaded Rats; 113 μmol/kg): 2411 ± 335 µg/day/kg | Iron excretion, Urine (1 day post-chelator) (Iron Overloaded Rats; 113 μmol/kg): 28 ± 8 µg/day/kg | Iron excretion, Feces (3 days) (Iron Overloaded Rats; 450 μmol/kg): 3228 ± 437 µg/day/kg | Iron excretion, Urine (1 day post-chelator) (Iron Overloaded Rats; 450 μmol/kg): 183 ± 20 µg/day/kg | D7.4 [2]: 0.099

CNC(=O)c1c(O)c(=O)cc(C)n1C1CC1 [Apo6619, 1-Cyclopropyl-3-hydroxy-6-methyl-4-oxo-1,4-dihydro-pyridine-2-carboxylic Acid Methylamide]
melting point: 258 to 260 °C (dec.) | Iron excretion, Urine (1 day post-chelator) (Iron Overloaded Rats; 28 μmol/kg): 14 ± 4 µg/day/kg | Iron excretion, Feces (3 days) (Iron Overloaded Rats; 113 μmol/kg): 3033 ± 1076 µg/day/kg | Iron excretion, Urine (1 day post-chelator) (Iron Overloaded Rats; 113 μmol/kg): 51 ± 15*τ μg/day/kg | Iron excretion, Feces (3 days) (Iron Overloaded Rats; 450 μmol/kg): 3831 ± 790 µg/day/kg | Iron excretion, Urine (1 day post-chelator) (Iron Overloaded Rats; 450 μmol/kg): 335±76 μg/day/kg and 335 ± 76*τ μg/day/kg | D7.4 [2]: 0.109

Cc1c(O)c(=O)ccn1C [deferiprone, 1,2-dimethyl-3-hydroxy-4-pyridinone, reference compound]
pKas (higher value, phenolic C3 OH) [1]: 9.64 | pKas (lower value, LH2+) [1]: 3.56 | administered dose recovered in the urine as the non-chelating O-glucuronide [3]: more than 85%
